Data from patent publication US8063104B2, “Guanidine derivatives as inhibitors of DDAH” (UCL Business PLC, priority 2004, dated 2011).
Read-outs that look alike come from different tables or passages of the source.

Columns and labels:
DDAH = target: T1, DDAH (Rattus norvegicus, UniProt O08557); experiment: DDAH activity assay (rat kidney lysate, [14C]L-NMMA to [14C]citrulline); format: biochemical; details: for inhibition at 100 µM / Inhibition at 100 μM (%): 100 μM compound; for inhibition at 1000 µM / Inhibition at 1 mM, %: 1 mM compound, [14C]L-NMMA 1 μmol/L, 1 h 37° C.
T1 construct: Rat kidney was homogenized in PBS; from tissue; host or cells: rat kidney homogenate, high-speed supernatant
Method: Rat kidney was homogenized in PBS containing PMSF 1 mM, leupeptin 5 μg/ml, pepstatin 5 μg/ml, chymostatin 5 μg/ml, and the lysate was centrifuged (4000 rpm. 20 min then supernatant further centrifuged for 40000 rpm, 30 min, 4° C.). The supernatants were analyzed for DDAH activity; [^14[…]) was added to the cell lysates (final volume 100 μl) and incubated for 1 h at 37° C. Dowex resin (0.5 ml) at neutral pH was immediately added to samples to terminate the reaction and bind unmetabolized L-NMMA. [^14C]Citrulline formation was determined by scintillation counting (Hewlett Packard).

iNOS = target: T2, iNOS (Mus musculus, UniProt P29477); experiment: iNOS activity Greiss assay in stimulated RAW cells; format: cell-based; details: Griess NOx, RAW cells stimulated 24 h with LPS/IFN and TNF, compound 0.5 mM, 550 nm; control 0.367 ± 0.021
T2 construct: endogenous in cells; host or cells: RAW cells stimulated with LPS/IFN and TNF
Method: RAW cells were stimulated for 24 h with LPS/IFN and TNF, in the presence of the DDAH inhibitor compounds (0.5 mM). Levels of NOx secreted into the media by the cells were determined by Griess assay: Greiss reagent [1:1 sulfanilamide ([…]) in ortho-phosphoric acid (50%) and N-(1-napthyl)ethylenediamine dihydrochloride (1%)] was added as 100 μl volume to 100 μl cell culture media and the plate was read at 550 nm and analysed in relation to sodium nitrite and nitrate standards.

eNOS = eNOS assay ([14C]arginine conversion); format: biochemical; details: eNOS activity
Method: Compounds to be tested were added to NOS assay buffer (HEPES 50 mM pH 7.2, FAD 5 μM, FMN 5 μM, BH4 10 μM, NADPH 1 mM, DTT 0.5 mM, CaCl2 1 mM, MgCl2 1 mM, calmodulin 50 nM, [^14C] arginine 100 μM) in a final volume of 100 μl and the reaction was initiated by addition of eNOS (eNOS 3.3. U/reaction, Alexis Biochemicals). Reactions were incubated for 1 h at 37° C. and the reaction was terminated by the addition of Dowex pH 5.5 (0.85 ml) to each tube. Tubes were vortexed and microfuged <12000 g, 5 min. 100 μl of the Dowex supernatant was added to 5 ml scintillation cocktail and was counted in a scintillation counter (Hewlett Packard). The compounds were tested at 1 mM and 0.1 mM concentrations. Activity is expressed as % of control where control contained no inhibitor, n=4. The DDAH inhibitors of the present invention tested had no significant effect on eNOS activity.

RAW cells = experiment: Cell viability assay (MTT) in RAW cells
Method: RAW cells were treated with DDAH inhibitor compound (0.5 mM) in complete media for 24 h; cells were subsequently assessed for viability by MTT assay. Cell culture media was removed from cells and replaced with 200 μl complete media containing 3-[4,5-Dimethylthiazol-2-yl]-2,5-diphenyltetrazolium bromide (MTT 0.2 mg/ml) for 30 min at 37° C. MTT containing media was removed and 100 ul DMSO was added to solubilize cells; after shaking, plates were read at OD550 nm.

[1] = MTT, RAW cells, compound 0.5 mM, 24 h, OD550 nm, control 2.54 ± 0.26

T1 sequence (O08557 2-285 limits assumed): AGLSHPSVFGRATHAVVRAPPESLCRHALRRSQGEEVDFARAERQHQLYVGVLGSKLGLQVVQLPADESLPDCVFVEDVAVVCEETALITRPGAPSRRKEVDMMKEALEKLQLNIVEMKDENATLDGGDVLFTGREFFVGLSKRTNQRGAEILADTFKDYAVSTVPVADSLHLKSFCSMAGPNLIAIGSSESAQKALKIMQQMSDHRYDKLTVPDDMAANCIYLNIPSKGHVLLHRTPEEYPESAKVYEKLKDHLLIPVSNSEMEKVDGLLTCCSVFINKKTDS

COCCN=C(N)NCC[C@H](N)C(=O)OCCOC [Example 41, 2-Methoxyethyl (S)-2-amino-4-[(N′-(2-methoxyethyl))guanidino]butanoate]
inhibition at 100 µM (DDAH): 59%

COCCN=C(N)NCC[C@H](N)C(=O)OCc1ccc(F)c(C(F)(F)F)c1 [Example 36, 3-Trifluoromethyl-4-fluorobenzyl (S)-2-amino-4-[(N′-(2-methoxyethyl))guanidino]butanoate]
inhibition at 100 µM (DDAH): 50.6%

NC(=NCc1ccccc1)NCC[C@H](N)C(=O)O [Example 3, (S)-2-Amino-4-(N′-benzylguanidino)butanoic acid]
inhibition at 1000 µM (DDAH): 22%

CC(C)(C)CN=C(N)NCC[C@H](N)C(=O)O [Example 10]
Inhibition at 1 mM, % (DDAH): 19%

N=C(NCCC[C@H](N)C(=O)O)NCC1CCCO1 (stereo partly drawn) [Example 31, (S)—N^G-((Tetrahydrofuran-2-yl)methyl)-arginine]
Inhibition at 100 μM (%) (DDAH): 30%

CNC(=N)NCCC[C@H](N)C(=O)O [L-NMMA, N^G monomethyl-L-arginine, reference compound]
OD units drug ± sd (iNOS): 0.121 ± 0.003 OD units
% of control ± sd (eNOS; 1 mM compound): 16.17 ± 15.78 [4] % of control
OD units drug ± sd (RAW cells; [1]): 2.22 ± 0.08 OD units

CCOC(=O)[C@@H](N)CCNC(N)=NCCOC [Example 23, (S)-2-Amino-4-(N′-(2-methoxyethyl)guanidino)butanoic acid ethyl ester]
inhibition at 1000 µM (DDAH): 44%

COCCN=C(N)NCC[C@H](N)C(=O)O [Example 6, (S)-2-Amino-4-(N′-(2-methoxyethyl)guanidino)butanoic acid]
inhibition at 1000 µM (DDAH): 90%

CC(C)N=C(N)NCC[C@H](N)C(=O)O [Example 1, (S)-2-Amino-4-(N′-isopropylguanidino)butanoic acid]
inhibition at 1000 µM (DDAH): 38%

N=C(NCC[C@H](N)C(=O)O)N1CCCCC1 [Example 15, (S)-2-Amino-4-[(piperidine-1-carboximidoyl)-amino]butanoic acid]
inhibition at 1000 µM (DDAH): 74%

CCCN=C(N)NCC[C@H](N)C(=O)O [Example 2, (S)-2-Amino-4-(N′-propylguanidino)butanoic acid]
inhibition at 1000 µM (DDAH): 41%

NC(=NC1CC1)NCC[C@H](N)C(=O)O [Example 8, (S)-2-Amino-4-(N′-cyclopropylguanidino)butanoic acid]
inhibition at 1000 µM (DDAH): 65%

COCCN=C(N)NCC[C@H](N)C(=O)OCc1cccc(Oc2ccccc2)c1 [Example 37, 3-Phenoxybenzyl (S)-2-amino-4-[(N′-(2-methoxyethyl))guanidino]butanoate]
inhibition at 100 µM (DDAH): 42.7%

C=CCN=C(N)NCC[C@H](N)C(=O)O [Example 14, (S)-2-Amino-4-(N′-allylguanidino)butanoic acid]
inhibition at 1000 µM (DDAH): 70%

COCCN=C(N)NCC[C@H](N)C(=O)OCc1cccc(C(F)(F)F)c1 [Example 39, 3-Trifluoromethylbenzyl (S)-2-amino-4-[(N′-(2-methoxyethyl))guanidino]butanoate]
inhibition at 100 µM (DDAH): 45.3%

CN(C)CCN=C(N)NCC[C@H](N)C(=O)O [Example 9, (S)-2-Amino-4-(N′-(2′-dimethylaminoethyl)guanidino)butanoic acid]
Inhibition at 1 mM, % (DDAH): 25%

CCCOC(=O)[C@@H](N)CCN(CCOC)C(=N)N [Example 24, (S)-2-Amino-4-(N-(2-methoxyethyl)guanidino)butanoic acid propyl ester]
Inhibition at 1 mM, % (DDAH): 64%
OD units drug ± sd (iNOS): 0.351 ± 0.013 OD units
% of control ± sd (eNOS; 0.1 mM compound): 113.5 ± 7.93 [2] % of control
% of control ± sd (eNOS; 1 mM compound): 93.97 ± 12.93 [4] % of control

CCCCOC(=O)[C@@H](N)CCNC(N)=NCCOC [Example 25, (S)-2-Amino-4-(N′-(2-methoxyethyl)guanidino)butanoic acid butyl ester]
inhibition at 1000 µM (DDAH): 40%

COCCN=C(N)NCC[C@H](N)C(=O)OCc1ccc(OC)cc1 [Example 34, 4-Methoxybenzyl (S)-2-amino-4-[(N′-(2-methoxyethyl))guanidino]butanoate]
inhibition at 100 µM (DDAH): 22.1%

COCCN=C(N)NCC[C@H](N)C(=O)OC [Example 22, (S)-2-Amino-4-(N′-(2-methoxyethyl)guanidino)butanoic acid methyl ester]
inhibition at 1000 µM (DDAH): 75%
OD units drug ± sd (iNOS): 0.329 ± 0.013 OD units
% of control ± sd (eNOS; 0.1 mM compound): 87.23 ± 18.05 [2] % of control
% of control ± sd (eNOS; 1 mM compound): 84.05 ± 8.09 [4] % of control
OD units drug ± sd (RAW cells): 2.33 ± 0.19 OD units

COCCN=C(N)NCC[C@H](N)C(=O)OCc1ccccc1F [Example 35, 2-Fluorobenzyl (S)-2-amino-4-[(N′-(2-methoxyethyl))guanidino]butanoate]
inhibition at 100 µM (DDAH): 39.8%

N=C(NCC[C@H](N)C(=O)O)N1CCCC1 [Example 16, (S)-2-Amino-4-[(pyrrolidine-1-carboximidoyl)-amino]butanoic acid]
inhibition at 1000 µM (DDAH): 79%

N=C(NCC[C@H](N)C(=O)O)N1CCOCC1 [Example 17, (S)-2-Amino-4-[(morpholine-4-carboximidoyl)-amino]butanoic acid]
inhibition at 1000 µM (DDAH): 60%

CC(C)OCCN=C(N)NCC[C@H](N)C(=O)O [Example 13, (S)-2-Amino-4-(N′-(2-isopropoxyethyl)guanidino)butanoic acid]
inhibition at 1000 µM (DDAH): 97%

CCCCCCCCN=C(N)NCC[C@H](N)C(=O)O [Example 7, (S)-2-Amino-4-(N′-octylguanidino)butanoic acid]
inhibition at 1000 µM (DDAH): 27%

NC(=NCc1cccs1)NCC[C@H](N)C(=O)O [(S)-2-Amino-4-(N′-(2-thiophenemethyl)guanidino)butanoic acid]
Inhibition at 1 mM, % (DDAH): 34%

NC(=Nc1ccccc1)NCC[C@H](N)C(=O)O [Example 5, (S)-2-Amino-4-(N′-phenylguanidino)butanoic acid]
inhibition at 1000 µM (DDAH): 65%

NC(=NCCOc1ccccc1)NCC[C@H](N)C(=O)O [Example 11, (S)-2-Amino-4-(N′-(2-phenoxyethyl)guanidino)butanoic acid]
inhibition at 1000 µM (DDAH): 38%

COCCN=C(N)NCC[C@H](N)C(=O)OCc1cccc(F)c1 [Example 40, 3-Fluorobenzyl (S)-2-amino-4-[(N′-(2-methoxyethyl))guanidino]butanoate]
inhibition at 100 µM (DDAH): 33.2%

N=C(NCC[C@H](N)C(=O)O)NCC1CCCO1 (stereo partly drawn) [Example 32, (2S)-2-Amino-4-N^G-((tetrahydrofuran-2-yl)methyl)guanidinobutanoic acid]
Inhibition at 100 μM (%) (DDAH): 10%

COCCN=C(N)NCC[C@H](N)C(=O)OCc1ccccc1 [Example 26, (S)-2-Amino-4-(N′-(2-methoxyethyl)guanidino)butanoic acid benzyl ester]
inhibition at 1000 µM (DDAH): 96%
OD units drug ± sd (iNOS): 0.327 ± 0.026 OD units
% of control ± sd (eNOS; 0.1 mM compound): 101.2 ± 38.07 [2] % of control
% of control ± sd (eNOS; 1 mM compound): 82.88 ± 10.08 [4] % of control
OD units drug ± sd (RAW cells): 2.40 ± 0.17 OD units

NC(=NC1CCCCC1)NCC[C@H](N)C(=O)O [Example 4, (S)-2-Amino-4-(N′-cyclohexylguanidino)butanoic acid]
inhibition at 1000 µM (DDAH): 51%

CC(=N)NCCC[C@H](N)C(=O)O [NIO, L-N-5-(1-iminoethyl)ornithine, reference compound]
OD units drug ± sd (iNOS): 0.103 ± 0.002 OD units
% of control ± sd (eNOS; 0.1 mM compound): 4.14 ± 8.74 [3] % of control
% of control ± sd (eNOS; 1 mM compound): 6.25 ± 7.52 [5] % of control
OD units drug ± sd (RAW cells; [1]): 1.89 ± 0.41 OD units

CSCCN=C(N)NCC[C@H](N)C(=O)O [Example 12, (S)-2-Amino-4-(N′-(2-methylthioethyl)guanidino)butanoic acid]
inhibition at 1000 µM (DDAH): 19%

COCCN=C(N)NCC[C@H](N)C(=O)OCc1cccc(C)c1 [Example 38, 3-Methylbenzyl (S)-2-amino-4-[(N′-(2-methoxyethyl))guanidino]butanoate]
inhibition at 100 µM (DDAH): 48.7%

COCCN=C(N)NCC[C@H](N)C(=O)OCc1ccccc1OC [Example 33, 2-Methoxybenzyl (S)-2-amino-4-[(N′-(2-methoxyethyl))guanidino]butanoate]
inhibition at 100 µM (DDAH): 47.4%
